Test results: patent US20150231134A1, “Combination Therapy using Belinostat and Trabectedin” (Onxeo DK, Branch of Onxeo S.A., France, priority 2012, published 2015)
Like-named read-outs stand apart in the source and are kept apart here.

Legend:
[1] = system: MesSa human sarcoma xenograft; assay type: in vivo
Procedure: The xenograft model used the MesSa cell line (ATCC: CRL-1976 human sarcoma cells) (in vitro cell passage number 67 from frozen stock (number 65) on day 5). Tumour cells (1×10^7) (trypsinated) (100 μL in 100 μL matrigel) were injected subcutaneously (s.c.) into the right flank of each mouse, with one node per mouse. The time from cell dilution to the end of injection was 24 minutes. Each mouse was anaesthetised with Hypnorm/Dormicum subcutaneously (s.c.) or isofluran (by inhalation) when the tumour cells were injected.
Four groups, each of 12 mice, were treated with vehicle, belinostat only, trabectedin only, or both belinostat and trabectedin, for three weeks, as summarised in the following table. On days that belinostat was administered, it was administered twice, with a 3 hour interval. On days that both belinostat and trabectedin were administered, the trabectedin was administered between the two belinostat administrations.
Mice were enrolled in treatment groups following confirmation of xenograft take. Both tumour diameter and body weight were measured on days: 0, 3, 7, 10, 14, 17, and 21. Animals were sacrificed (by cervical dislocation) on day 21. Tumour weight was measured on day 21 (following sacrifice).
“T/C%” denotes tumour weight following treatment as a percent of control, using Mann-Whitney statistical analysis. The results (median tumour volume) are also illustrated in FIG. 4.
“T/C%” denotes tumour weight following treatment as a percent of control, using Mann-Whitney statistical analysis. The results (median tumour weight) are also illustrated in FIG. 5.

[2] = system: Osteocarcinoma Cells (Saos-2); assay: Clonogenic assay (continuous co-incubation), osteocarcinoma cells Saos-2; assay type: cell-based
Procedure: (§1) The effects of the combination of belinostat and trabectedin were studied in clonogenic assays. The clonogenic assay assesses anti-clonogenic activity of tumour cells. The “target” in clonogenic assay is all biochemical and molecular elements or alterations characteristic of tumour cells rather than specific single targets.
(§2) Cells were grown for at least 1 week after thawing in standard media to obtain a sub-confluent culture. The 3.3% agar was boiled for at least 60 minutes in a water bath on an electrical heating plate (30 mL PBS+990 mg Bacto agar). The 90 mL growth medium (RPMI-1640+10% FCS) was heated in a water bath at 37° C. Cells were centrifuged in 50 mL centrifuge tubes at 1200 rpm for 5 minutes at room temperature.
(§3) Drug (belinostat or trabectedin) was dissolved and diluted with growth medium or DMSO to a concentration of […] the final concentration.
(§4) Cells were suspended in 7 mL growth medium using a 1 mL syringe and an 18 gauge needle by pumping the solution up and down 15 times. Cells were stained with Nigrosin (0.3 mL cells+0.3 mL 0.1% Nigrosin in PBS), and counted after 8 minutes using a Fuchs-Rosenthal counting chamber.
(§5) Then, 10 mL agar and 90 mL growth medium was mixed (0.33%) and heated in a water bath at 37° C. 0.35 mL cell suspension was transferred to 10 mL conical centrifuge tubes using a dispenser. 35 μL drug (belinostat or trabectedin) was added. 3.15 mL agar/medium was added to each tube (maximum 8 tubes at the time).
(§6) For each belinostat combination tested series of 7 titrations corresponding to approximately 30, 40, 50, 60, 70, 80, 90% inhibition was tested as mono-therapy and in combination.
(§7) The Combination Index (CI) provides a measure of the interaction: A CI value of less than 1 indicates synergy, a CI value of 1 indicates an additive effect, and a CI value of greater than 1 indicates antagonism.

soft-tissue sarcoma = conditions: patients with soft-tissue sarcoma, pivotal clinical trial; cited from earlier work
[3] = system: Ovarian Cancer Cells (A2780); assay: Clonogenic assay (continuous co-incubation), ovarian cancer cells A2780; assay type: cell-based
Procedure: as §1, §2, §3, §4, §5, §6, §7

Sarcoma Cells (MesSa) = assay: Clonogenic assay (continuous co-incubation), sarcoma cells MesSa; assay type: cell-based, human
Procedure: as §1, §2, §3, §4, §5, §6, §7

[4] = physiological pH; cited from earlier work
[5] = day 0, trabectedin 0.1 mg/kg i.v. once, days 0, 3, 7, 10
[6] = day 4, trabectedin 0.1 mg/kg i.v. once, days 0, 3, 7, 10
[7] = day 7, trabectedin 0.1 mg/kg i.v. once, days 0, 3, 7, 10
[8] = day 10, trabectedin 0.1 mg/kg i.v. once, days 0, 3, 7, 10
[9] = day 14, trabectedin 0.1 mg/kg i.v. once, days 0, 3, 7, 10
[10] = day 17, trabectedin 0.1 mg/kg i.v. once, days 0, 3, 7, 10
[11] = day 0, belinostat 40 mg/kg i.p. twice daily, days 0-4, 7-11, 14-18
[12] = day 4, belinostat 40 mg/kg i.p. twice daily, days 0-4, 7-11, 14-18
[13] = day 7, belinostat 40 mg/kg i.p. twice daily, days 0-4, 7-11, 14-18
[14] = day 10, belinostat 40 mg/kg i.p. twice daily, days 0-4, 7-11, 14-18
[15] = day 14, belinostat 40 mg/kg i.p. twice daily, days 0-4, 7-11, 14-18
[16] = day 17, belinostat 40 mg/kg i.p. twice daily, days 0-4, 7-11, 14-18

## COc1cc2c(cc1O)CCN[C@]21CS[C@@H]2c3c(OC(C)=O)c(C)c4c(c3[C@H](COC1=O)N1[C@@H]2[C@H]2c3c(cc(C)c(OC)c3O)C[C@@H]([C@@H]1O)N2C)OCO4 (relative stereo) [Trabectedin, spiro[6,16-(epithiopropanoxymethano)-7,13-imino-12H-1,3-dioxolo[7,8]isoquino[3,2-b][3]benzazocine-20,1′(2′H)-isoquinolin]-19-one, 5-(acetyloxy)-3′,4′,6,6a,7,13,14,16-octahydro-6′,8,14-trihydroxy-7′,9-dimethoxy-4,10,23-trimethyl-, [6R-(6α,6aβ,7β,13β,14β,16α,20R*)]]
[1]; [5]
  Median Tumour Volume, Trabectedin Only: 87 mm^3
  T/C % (tumour volume), Trabectedin Only: 100%
[1]; [6]
  Median Tumour Volume, Trabectedin Only: 87 mm^3
  T/C % (tumour volume), Trabectedin Only: 100%
[1]; [7]
  Median Tumour Volume, Trabectedin Only: 57 mm^3
  T/C % (tumour volume), Trabectedin Only: 50%
[1]; [8]
  Median Tumour Volume, Trabectedin Only: 65 mm^3
  T/C % (tumour volume), Trabectedin Only: 29%
[1]; [9]
  Median Tumour Volume, Trabectedin Only: 76 mm^3
  T/C % (tumour volume), Trabectedin Only: 31%
[1]; [10]
  Median Tumour Volume, Trabectedin Only: 134 mm^3
  T/C % (tumour volume), Trabectedin Only: 30%
[1]; day 21, trabectedin 0.1 mg/kg i.v. once, days 0, 3, 7, 10
  Median Tumour Volume, Trabectedin Only: 167 mm^3
[1]; day 21, trabectedin 0.1 mg/kg i.v. once, days 0, 3, 7, 10, p=0.01
  T/C % (tumour volume), Trabectedin Only: 25%
[1]; day 21, trabectedin 0.1 mg/kg i.v. once, days 0, 3, 7, 10, p=0.027
  T/C % (tumour weight), Trabectedin Alone: 30%
[1]; day 21, trabectedin 0.1 mg/kg, once daily, i.v., days 0, 3, 7, 10, p=0.01
  reduction in growth (tumour volume): 75%
[1]; day 21, trabectedin 0.1 mg/kg, once daily, i.v., days 0, 3, 7, 10, p=0.027
  reduction in growth (tumour weight): 70%
[1]; trabectedin 0.1 mg/kg, once daily, i.v., days 0, 3, 7, 10 of a 3 week cycle
  tumour growth delay (in words): significant tumour growth delay
[2]; trabectedin 0.005 nM
  Trabectedin Alone (% survival): 79.99%
[2]; trabectedin 0.010 nM
  Trabectedin Alone (% survival): 77.74%
[2]; trabectedin 0.09 nM
  Trabectedin Alone (% survival): 74.94%
[2]; trabectedin 0.13 nM
  Trabectedin Alone (% survival): 69.14%
[2]; trabectedin 0.17 nM
  Trabectedin Alone (% survival): 60.61%
[2]; trabectedin 0.21 nM
  Trabectedin Alone (% survival): 65.08%
[2]; trabectedin 0.26 nM
  Trabectedin Alone (% survival): 49.99%
soft-tissue sarcoma
  time-to-tumour-progression (TTP): 3.9 months
[3]; trabectedin 0.66 nM
  Trabectedin Alone (% survival): 75.33%
[3]; trabectedin 0.73 nM
  Trabectedin Alone (% survival): 62.12%
[3]; trabectedin 0.80 nM
  Trabectedin Alone (% survival): 49.62%
[3]; trabectedin 0.84 nM
  Trabectedin Alone (% survival): 44.20%
[3]; trabectedin 0.88 nM
  Trabectedin Alone (% survival): 44.06%
[3]; trabectedin 0.92 nM
  Trabectedin Alone (% survival): 36.20%
[3]; trabectedin 0.96 nM
  Trabectedin Alone (% survival): 28.69%
Sarcoma Cells (MesSa); trabectedin 0.20 nM
  Trabectedin Alone (% survival): 86.17%
Sarcoma Cells (MesSa); trabectedin 0.46 nM
  Trabectedin Alone (% survival): 87.51%
Sarcoma Cells (MesSa); trabectedin 0.64 nM
  Trabectedin Alone (% survival): 81.84%
Sarcoma Cells (MesSa); trabectedin 0.75 nM
  Trabectedin Alone (% survival): 67.10%
Sarcoma Cells (MesSa); trabectedin 0.86 nM
  Trabectedin Alone (% survival): 42.38%
Sarcoma Cells (MesSa); trabectedin 0.97 nM
  Trabectedin Alone (% survival): 33.98%
Sarcoma Cells (MesSa); trabectedin 1.1 nM
  Trabectedin Alone (% survival): 26.55%

## O=C(/C=C/c1cccc(S(=O)(=O)Nc2ccccc2)c1)NO [Belinostat, (E)-N-hydroxy-3-(3-phenylsulfamoyl-phenyl)-acrylamide]
[4]
  solubility in water: sparingly soluble
[1]; belinostat 40 mg/kg, twice daily, i.p., 5 days per week for 3 weeks
  tumour growth delay (in words): some but not significant tumour growth delay
[1]; [11]
  Median Tumour Volume, Belinostat Only: 65 mm^3
  T/C % (tumour volume), Belinostat Only: 75%
[1]; [12]
  Median Tumour Volume, Belinostat Only: 71 mm^3
  T/C % (tumour volume), Belinostat Only: 81%
[1]; [13]
  Median Tumour Volume, Belinostat Only: 76 mm^3
  T/C % (tumour volume), Belinostat Only: 67%
[1]; [14]
  Median Tumour Volume, Belinostat Only: 87 mm^3
  T/C % (tumour volume), Belinostat Only: 39%
[1]; [15]
  Median Tumour Volume, Belinostat Only: 144 mm^3
  T/C % (tumour volume), Belinostat Only: 59%
[1]; [16]
  Median Tumour Volume, Belinostat Only: 295 mm^3
  T/C % (tumour volume), Belinostat Only: 66%
[1]; day 21, belinostat 40 mg/kg i.p. twice daily, days 0-4, 7-11, 14-18
  Median Tumour Volume, Belinostat Only: 449 mm^3
[1]; day 21, belinostat 40 mg/kg i.p. twice daily, days 0-4, 7-11, 14-18, p=0.10
  T/C % (tumour volume), Belinostat Only: 67%
[1]; day 21, belinostat 40 mg/kg i.p. twice daily, days 0-4, 7-11, 14-18, p=0.180
  T/C % (tumour weight), Belinostat Alone: 77%
[1]; day 21, belinostat 40 mg/kg, twice daily, i.p., 5 days per week for 3 weeks, p=0.10
  reduction in growth (tumour volume): 33%
[1]; day 21, belinostat 40 mg/kg, twice daily, i.p., 5 days per week for 3 weeks, p=0.180
  reduction in growth (tumour weight): 23%
[2]; belinostat 0.065 μM
  Belinostat Alone (% survival): 86.96%
[2]; belinostat 0.10 μM
  Belinostat Alone (% survival): 66.47%
[2]; belinostat 0.115 μM
  Belinostat Alone (% survival): 69.29%
[2]; belinostat 0.13 μM
  Belinostat Alone (% survival): 74.52%
[2]; belinostat 0.145 μM
  Belinostat Alone (% survival): 45.50%
[2]; belinostat 0.19 μM
  Belinostat Alone (% survival): 38.34%
[2]; belinostat 0.225 μM
  Belinostat Alone (% survival): 30.59%
[3]; belinostat 0.04 μM
  Belinostat Alone (% survival): 97.74%
[3]; belinostat 0.36 μM
  Belinostat Alone (% survival): 82.64%
[3]; belinostat 0.47 μM
  Belinostat Alone (% survival): 65.30%
[3]; belinostat 0.56 μM
  Belinostat Alone (% survival): 31.60%
[3]; belinostat 0.63 μM
  Belinostat Alone (% survival): 15.82%
[3]; belinostat 0.68 μM
  Belinostat Alone (% survival): 7.19%
[3]; belinostat 0.73 μM
  Belinostat Alone (% survival): 2.42%
Sarcoma Cells (MesSa); belinostat 0.27 μM
  Belinostat Alone (% survival): 88.48%
Sarcoma Cells (MesSa); belinostat 0.37 μM
  Belinostat Alone (% survival): 68.82%
Sarcoma Cells (MesSa); belinostat 0.48 μM
  Belinostat Alone (% survival): 57.06%
Sarcoma Cells (MesSa); belinostat 0.57 μM
  Belinostat Alone (% survival): 42.92%
Sarcoma Cells (MesSa); belinostat 0.66 μM
  Belinostat Alone (% survival): 37.33%
Sarcoma Cells (MesSa); belinostat 0.80 μM
  Belinostat Alone (% survival): 17.90%
Sarcoma Cells (MesSa); belinostat 1.0 μM
  Belinostat Alone (% survival): 2.75%
